Reference: patent US6613762B2, “Gambogic acid, analogs and derivatives as activators of caspases and inducers of apoptosis” (Cytovia, Inc., priority 1999, dated 2003)

System: PC-3 cells
Assay: Inhibition of cell proliferation (GI50) and cell death (LC50), PC-3
Type: cell-based
Details: PC-3, 48 h; read-out: GI50 (dose for 50% inhibition of cell proliferation)
Protocol: T47D, ZR-75-1, PC-3, human prostate cancer cell line DU-145, human non-small cell lung cancer cell line A-549, human small cell lung cancer cell line SHP-77, HL-60 and MRC-5 cells were grown and harvested as in Example 90. […] The samples were mixed by agitation and incubated at 37° C. for 2-4 h in a 5% CO2-95% humidity incubator. […] This determines the possible background absorbance of the test compounds. No absorbance for gambogic acid or its analogs or derivatives was found at 490 nm. After the 2-4 h incubation, the samples were read for absorbance as above (ATest).
Baseline for GI50 (dose for 50% inhibition of cell proliferation) and LC50 (dose for 50% cell death) of initial cell numbers was determined by adding an aliquot of 90 μl of cells or 90 μl of media, respectively, to wells of a 96-well microtiter plate containing 10 μl of a 10% DMSO in RPMI-1640 media solution. […] The samples were mixed by agitation and incubated at 37° C. for 2-4 h in a 5% CO2-95% humidity incubator. Absorbance was read as above, (AT=0) defining absorbance for initial cell number used as baseline in GI50 determinations and (Amin) defining absorbance for media alone used as baseline in LC50 determinations.
GI50 (dose for 50% inhibition of cell proliferation)
LC50 (dose for 50% cell death)
50=100×[(ATest−Amin)/(AT=0−Amin)]

`CC(C)=CCC[C@]1(C)C=Cc2c(O)c3c(c(CC=C(C)C)c2O1)O[C@]12C(=C[C@@H]4C[C@H]1C(C)(C)O[C@@]2(C/C=C(/C)C(=O)O)C4=O)C3=O` [Example 1, Gambogic Acid] was tested, and the GI50 was 500 nM.
